Laboratory results reported in patent US20160326098A1, “Pharmaceutically Active Compound for Use as Anti-inflammatory Agent” (Pax Forschung GmbH, priority 2013, published 2016).

Key:
Format in all cases: in vivo
[1] = test system: gastric mucosa; experiment: Macroscopic analysis (score) of gastric mucosa damage, mice; conditions: 1.11 mmol/kg, vs groups A and C, FIG. 10
Description: (§1) First experiments regarding the effect of the compound of formula (I) and a pharmaceutical composition comprising the compound of formula (I) (clear aqueous solution of compound of formula (I) at pH 4.8), respectively, on gastric injury without inflammation were conducted on mice. 48 animals were randomly allocated into three groups. Group A (n=16) served as sham-operated controls. Samples of all animals were drawn on day 1 of the clinical tests. On day 2 the animals of group B (n=16) were force-fed acetylsalicylic acid (ASS) (1.11 mmol/kg body weight). Group C (n=16) was force-fed 1.11 mmol/kg body weight of the compound according to the invention. Group A only received the respective solvent (25% ethanol in water). One day after the gavage, additional samples were drawn. Fluorescence confocal endomicroscopy was performed to examine the microvasculature and morphologic changes of the mucosa of the distal colon, and full-thickness tissue samples and venous blood samples were taken to determine the biochemical changes in the colon and plasma. The effects were determined by way of measurement of body weight, blood gas analysation and biopsy. […]
The average of the three criteria is calculated for the animals of each group, wherein “0” means for criteria 1 small or no bleeding area, for criteria 2 no bleeding area and for criteria 3 no ulcer. […]

[2] = test system: nitrite/nitrate (NOx); experiment: Tissue nitrite/nitrate level, mice with gastric injury without inflammation; conditions: gastric and duodenal tissue, 1.11 mmol/kg, vs control group A and group C, FIGS. 7a/7b
Description: […] This assay depends on the reduction of nitrate to nitrite, which is then converted into a colored azo dye compound that is detected spectrophotometrically at 540 nm.
as §1

[3] = Haematocrit in blood, rats with TNBS-induced colitis; conditions: 1.11 mmol/kg, vs groups L and M, FIG. 28
Description: (§2) Colonic inflammation was induced by intracolonic administration of TNBS (2,4,6-trinitrobenzenesulfonic acid) (40 mg/kg in 0.25 ml of 25% aqueous ethanol) through an 8-cm-long soft plastic catheter under transient diethylether anesthesia. In the sham-operated groups, only the vehicle for TNBS was administered. The animals were deprived of food, but not water, for 12 h before the enemas.
(§3) The above-described clinical studies were repeated with animals having colitis which was induced as described above. […] Two days after the enema the effects of the treatment were determined by measurement of body weight, blood gas analysis and biopsy. […] Surgery was performed to allow registration of the hemodynamic parameters at 1 h intervals for 6 h (cardiac output [CO] data were measured only at the end of the experiments). […] In addition, fluorescence confocal endomicroscopy was performed to examine the microvasculature and morphologic changes of the mucosa of the distal colon, and full-thickness tissue samples and venous blood samples were taken to determine the biochemical changes in the colon and plasma.

[4] = test system: TNF-α; experiment: Plasma TNF-α level, rats with TNBS-induced colitis; conditions: 1.11 mmol/kg, vs untreated colitis group M, FIG. 30
Description: as §2
Plasma TNF-α concentrations were determined in duplicate by means of a commercially available enzyme-linked immunosorbent assay (Quantikine ultrasensitive enzyme-linked immunosorbent assay kit for rat TNF-α; Biomedica Hungaria Kft, Budapest, Hungary). […]
as §3

[5] = test system: collagen-induced arthritis (CIA); experiment: Collagen-induced arthritis (CIA), thermal stimulation (inflammatory hyperalgesia); conditions: mice with CIA, 1.11 mmol/kg force-fed, vs untreated arthritis group 2, FIG. 37
Description: Further clinical studies were performed with animals having collagen-induced arthritis (CIA). In these studies, mice were used as test animals. At the age of eight weeks, the animals were immunized intradermally at the base of the tail with 50 μl of bovine collagen II emulsified in 50 μl of complete Freund's adjuvant. A second booster immunization was performed 3 weeks later, when 50 μl of incomplete Freund's adjuvant was administered with or without the same volume of collagen H. The animals were randomly allocated into experimental groups wherein group 1 served as control, having no arthritis, group 2 served as second control having arthritis, but receiving no further treatment, and group 3 having arthritis and being treated with compound according to the invention. The animals of group 3 were force-fed 1.11 mmol/kg body weight of the compound according to the invention from the first immunization until the end of the experiments. The severity of CIA was evaluated using a clinical scoring system; inflammatory hyperalgesia was detected with thermal stimulation.
The animals were acclimatized to the experimental conditions for 1 hour preceding the test. Then they were placed onto a heating plate set to 40° C. to assess their thermal hypersensitivity. […]

| haematocrit level in the blood [3] | Compound | macroscopic analysis of the mucosa (score) [1] | nitrite/nitrate level [2] | plasma TNF-α level [4] | thermosensitivity (thermal stimulation score, 40° C. heating plate) [5] |
| --- | --- | --- | --- | --- | --- |
| – | CC(=O)Oc1ccccc1C(=O)O [ASS, acetylsalicylic acid, reference compound] | significant damage of the mucosa | significant difference in the nitrite/nitrate level | – | – |
| slightly higher | CC(=O)Oc1ccccc1C(=O)NC(CO)(CO)CO [compound according to the invention] | – | – | significant decrease in the TNF-α level | significantly lower thermosensitivity |
